Values after ≈ are worked out from the molar mass of the structure shown.
How the values were obtained:
Escherichia coli [1] = test: Antibacterial activity against Escherichia coli DC0 assessed as bacterial growth inhibition by agar dilution method; assay type: functional
Escherichia coli [2] = test: Antibacterial activity against Escherichia coli DC2 assessed as bacterial growth inhibition by agar dilution method; assay type: functional
[3] = Half life in marmoset at 3 mg/kg, iv; assay type: ADME, organism-based; conditions: callitrichinae sp., in vivo
[4] = AUC in marmoset at 3 mg/kg, iv; assay type: ADME, organism-based; parameters: dose 3 mg/kg, route iv; conditions: callitrichinae sp., in vivo
Escherichia coli [5] = test: Potency index, ratio of ceftazidime MIC to compound IC50 for antibacterial activity against Escherichia coli DC0; assay type: functional
Escherichia coli [6] = test: Potency index, ratio of ceftazidime MIC to compound IC50 for antibacterial activity against Escherichia coli DC2; assay type: functional
[7] = Protein binding in marmoset plasma; assay type: ADME, cell-free, Callithrix jacchus; conditions: read-out: PPB (converted)
Escherichia coli [8] = test: Antibacterial activity against Escherichia coli ATCC 700603 assessed as bacterial growth inhibition by agar dilution method; assay type: functional
Escherichia coli [9] = test: Potency index, ratio of norfloxacin MIC to compound IC50 for antibacterial activity against Escherichia coli ATCC 700603; assay type: functional
Escherichia coli [10] = test: Potency index, ratio of ciprofloxacin MIC to compound IC50 for antibacterial activity against Escherichia coli ATCC 700603; assay type: functional
Escherichia coli [11] = test: Potency index, ratio of clinafloxacin MIC to compound IC50 for antibacterial activity against Escherichia coli ATCC 700603; assay type: functional
Escherichia coli [12] = test: Potency index, ratio of chloromycin MIC to compound IC50 for antibacterial activity against Escherichia coli ATCC 700603; assay type: functional
Escherichia coli [13] = test: Antibacterial activity against Escherichia coli assessed as bacterial growth inhibition; assay type: functional
Escherichia coli [14] = test: In vivo antibacterial activity against Escherichia coli infected in sc dosed CD-1 mouse assessed as bacterial growth inhibition; assay type: functional; conditions: read-out: PD50
Escherichia coli [15] = test: In vivo antibacterial activity against Escherichia coli infected in po dosed CD-1 mouse assessed as bacterial growth inhibition; assay type: functional; conditions: read-out: PD50
Escherichia coli [16] = test: Antibacterial activity against Escherichia coli ATCC 8739 assessed as bacterial growth inhibition by agar dilution method; assay type: functional

Question: For `CCn1cc(C(=O)NCC2=C(C(=O)O)N3C(=O)[C@@H](NC(=O)/C(=N\OC(C)(C)C(=O)O)c4csc(N)n4)C3SC2)c(=O)c2cc(O)c(O)cc21` (stereo in doubt), which MIC (Escherichia coli [1]) is on record?
Answer: 8 ng/mL (≈ 0.0112 µM)

Question: And the MIC (Escherichia coli [2])?
Answer: 8 ng/mL (≈ 0.0112 µM)

Question: And the half-life [3]?
Answer: 3.47 h

Question: What about the AUC [4] of the same compound?
Answer: 238 µg·h/mL

Question: And the Ratio (Escherichia coli [5])?
Answer: 8

Question: And the Ratio (Escherichia coli [6])?
Answer: 8

Question: And the fraction unbound [7]?
Answer: 0.008

Question: For `Cc1nc(N2CCOCC2)c([N+](=O)[O-])n1CC(O)CNC1CCN(c2c(F)cc3c(=O)c(C(=O)O)cn(C4CC4)c3c2Cl)C1` (stereo unspecified), which MIC (Escherichia coli [8]) is on record?
Answer: 500 ng/mL (≈ 0.789 µM)

Question: What about the Ratio (Escherichia coli [9]) of the same compound?
Answer: 2

Question: And the Ratio (Escherichia coli [10])?
Answer: 2

Question: What about the Ratio (Escherichia coli [11]) of the same compound?
Answer: 2

Question: And the Ratio (Escherichia coli [12])?
Answer: 2

Question: Which MIC (Escherichia coli [13]) does the source give for `CCn1cc(C(=O)O)c(=O)c2cc(F)c(N3CCC4(CCN(C)C4)C3)cc21` (stereo unspecified) here?
Answer: 6 ng/mL (≈ 0.0161 µM)

Question: And the ED50 (Escherichia coli [14])?
Answer: 8.4 mg/kg

Question: What about the ED50 (Escherichia coli [15]) of the same compound?
Answer: 3.4 mg/kg

Question: Which MIC (Escherichia coli [16]) does the source give for `CCn1cc(C(=O)O)c(=O)c2cc(F)c(N3CCN(CC(=O)c4ccoc4)CC3)cc21` here?
Answer: 49 ng/mL (≈ 0.115 µM)

From ChEMBL document CHEMBL5244219, “Recent developments of quinolone-based derivatives and their activities against Escherichia coli” (Eur J Med Chem, 2018)
